“Also recorded” adds a separate entry of the source.
System: lashes and adjacent hairs of patients having glaucoma
Experiment: Observation of lashes and adjacent hairs in glaucoma patients treated in only one eye
Format: in vivo, human
Conditions: glaucoma patients taking the drug in only one eye; gross inspection and slit lamp biomicroscope
Text: In the course of treating patients having glaucoma, treatment may only be appropriate in one eye. […] The lash appearance on the lids of the treated eyes would have appeared quite attractive if it represented a bilateral phenomenon. As a result of its asymmetric nature, the long lashes on one side could be construed as disturbing from a cosmetic standpoint. A systemic examination was preformed as a result of the asymmetric phenomenon. It soon became apparent that this altered appearance was not an isolated finding. […] Definite differences could be identified to varying degrees in the lashes and adjacent hairs of all patients who were taking the drug on a unilateral basis for longer than 6 months.
The changes in the lashes were apparent on gross inspection in several patients once attention was focused on the issue. In those with light colored hair and lashes, the differences were only seen easily with the aid of the high magnification and lighting capabilities of the slit lamp biomicroscope. In the course of glaucoma follow-up examination, attention is generally immediately focused on the eye itself. As a result of the high power magnification needed only one eye is seen at a time and the eye is seen at a high enough power that the lashes are not in focus. […]

SMILES: CCNC(=O)CCC/C=C\C[C@@H]1[C@@H](/C=C/[C@@H](O)CCc2ccccc2)[C@H](O)C[C@@H]1O [bimatoprost]
- lash / hair growth in treated eye versus non-treated eye: longer, thicker, and fuller in the treated eye than in the non-treated eye; also recorded: hair growth is stimulated

— patent US7964596B2, “Therapeutic compounds” (Allergan, Inc., priority 2008, dated 2011)
